The source of these data is BindingDB's records for PubMed 37713805 (University of Michigan).

This test concerns the target Mitogen-activated protein kinase kinase kinase 12 (Homo sapiens) (UniProt Q12852). Description: Binding affinity to DLK (unknown origin) assessed as inhibition constant.

Sequence of Mitogen-activated protein kinase kinase kinase 12 (Homo sapiens) (Q12852 whole entry, looked up): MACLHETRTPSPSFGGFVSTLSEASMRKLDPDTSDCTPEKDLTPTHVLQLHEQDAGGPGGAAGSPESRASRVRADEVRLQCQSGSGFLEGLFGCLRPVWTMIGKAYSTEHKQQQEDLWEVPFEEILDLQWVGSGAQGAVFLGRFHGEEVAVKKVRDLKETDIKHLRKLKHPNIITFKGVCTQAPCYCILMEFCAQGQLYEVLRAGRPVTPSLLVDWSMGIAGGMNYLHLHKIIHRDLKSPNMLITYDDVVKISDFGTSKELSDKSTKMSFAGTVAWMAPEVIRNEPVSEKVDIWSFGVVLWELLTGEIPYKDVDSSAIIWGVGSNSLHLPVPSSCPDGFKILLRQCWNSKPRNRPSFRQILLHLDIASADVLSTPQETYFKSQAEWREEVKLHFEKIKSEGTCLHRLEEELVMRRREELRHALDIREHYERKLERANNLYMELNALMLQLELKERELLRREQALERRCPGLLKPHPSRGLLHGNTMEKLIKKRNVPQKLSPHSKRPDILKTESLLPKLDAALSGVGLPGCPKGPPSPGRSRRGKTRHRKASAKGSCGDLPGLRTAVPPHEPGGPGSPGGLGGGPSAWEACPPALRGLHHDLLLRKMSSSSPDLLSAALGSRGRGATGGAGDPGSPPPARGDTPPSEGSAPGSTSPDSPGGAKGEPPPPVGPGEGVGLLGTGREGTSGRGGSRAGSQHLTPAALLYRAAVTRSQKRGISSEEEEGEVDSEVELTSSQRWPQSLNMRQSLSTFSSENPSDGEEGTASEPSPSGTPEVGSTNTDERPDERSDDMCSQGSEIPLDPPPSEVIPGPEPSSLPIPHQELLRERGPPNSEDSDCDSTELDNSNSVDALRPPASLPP

Turning to `CC(=O)N1CCC(c2cc(Nc3cc(C#N)ccn3)nc(N3CCC(F)(F)C3)c2)CC1`, the inhibitory constant (Ki) was found to be 25 nM.

Broadly, the Ki is the dissociation constant of the complex between target and ligand, obtained from inhibition or displacement.
